Experimental findings from ChEMBL document CHEMBL5046277, “Rational Design for Nitroreductase (NTR)-Responsive Proteolysis Targeting Chimeras (PROTACs) Selectively Targeting Tumor Tissues” (J Med Chem, 2022) are described below.

The source made the active and inactive calls. The rule behind the calls is not given here.

Experiment [1] addresses von Hippel-Lindau disease tumor suppressor/Epidermal growth factor receptor (Homo sapiens) (UniProt P00533+P40337). In words: Protac activity at VHL/EGFR in human HCC827 cells assessed as induction of EGFR degradation at 100 nM pretreated for 2 hrs with VHL-L followed by compound addition. Type of experiment: cell-based.
Experiment [2] concerns HCC827. The experiment in a line: Antiproliferative activity against human HCC827 cells assessed as cell viability measured after 72 hrs under hypoxic condition by CCK-8 assay. The experiment is classed as functional, cell-based. The following applies: HCC827, 72 h. A general note: Tetrazolium assays rely on reduction of a dye to a coloured formazan, in cell work by metabolically active cells.

Experiment [3] has as its system HCC827. The experiment in a line: Antiproliferative activity against human HCC827 cells assessed as reduction in cell viability measured after 72 hrs under normoxic condition by CCK-8 assay. Type of experiment: functional, cell-based. The following applies: HCC827, 72 h.
Experiment [4] relates to HCC827. The experiment in a line: Antiproliferative activity against human HCC827 cells assessed as cell viability measured after 72 hrs in presence of NTR by CCK-8 assay. Type of experiment: functional, cell-based. The conditions noted are these: HCC827, 72 h.
In experiment [5] the target is Epidermal growth factor receptor (Homo sapiens) (UniProt P00533). In words: Induction of EGFR degradation in human HCC827 cells assessed as EGFR protein level measured after 72 hrs under normoxic condition by Western blot assay. Type of experiment: functional, cell-based. In general terms: Immunoblotting shows a protein as a band on a membrane.
For experiment [6], the system named is HCC827. In words: Antiproliferative activity against human HCC827 cells assessed as cell viability measured after 72 hrs by CCK-8 assay. Type of experiment: functional, cell-based.
Experiment [7] has as its target Epidermal growth factor receptor (Homo sapiens) (UniProt P00533). In words: Induction of EGFR degradation in human HCC827 cells assessed as EGFR protein level measured after 72 hrs by Western blot assay. The experiment is classed as cell-based.

Epidermal growth factor receptor (Homo sapiens), sequence (P00533 whole entry): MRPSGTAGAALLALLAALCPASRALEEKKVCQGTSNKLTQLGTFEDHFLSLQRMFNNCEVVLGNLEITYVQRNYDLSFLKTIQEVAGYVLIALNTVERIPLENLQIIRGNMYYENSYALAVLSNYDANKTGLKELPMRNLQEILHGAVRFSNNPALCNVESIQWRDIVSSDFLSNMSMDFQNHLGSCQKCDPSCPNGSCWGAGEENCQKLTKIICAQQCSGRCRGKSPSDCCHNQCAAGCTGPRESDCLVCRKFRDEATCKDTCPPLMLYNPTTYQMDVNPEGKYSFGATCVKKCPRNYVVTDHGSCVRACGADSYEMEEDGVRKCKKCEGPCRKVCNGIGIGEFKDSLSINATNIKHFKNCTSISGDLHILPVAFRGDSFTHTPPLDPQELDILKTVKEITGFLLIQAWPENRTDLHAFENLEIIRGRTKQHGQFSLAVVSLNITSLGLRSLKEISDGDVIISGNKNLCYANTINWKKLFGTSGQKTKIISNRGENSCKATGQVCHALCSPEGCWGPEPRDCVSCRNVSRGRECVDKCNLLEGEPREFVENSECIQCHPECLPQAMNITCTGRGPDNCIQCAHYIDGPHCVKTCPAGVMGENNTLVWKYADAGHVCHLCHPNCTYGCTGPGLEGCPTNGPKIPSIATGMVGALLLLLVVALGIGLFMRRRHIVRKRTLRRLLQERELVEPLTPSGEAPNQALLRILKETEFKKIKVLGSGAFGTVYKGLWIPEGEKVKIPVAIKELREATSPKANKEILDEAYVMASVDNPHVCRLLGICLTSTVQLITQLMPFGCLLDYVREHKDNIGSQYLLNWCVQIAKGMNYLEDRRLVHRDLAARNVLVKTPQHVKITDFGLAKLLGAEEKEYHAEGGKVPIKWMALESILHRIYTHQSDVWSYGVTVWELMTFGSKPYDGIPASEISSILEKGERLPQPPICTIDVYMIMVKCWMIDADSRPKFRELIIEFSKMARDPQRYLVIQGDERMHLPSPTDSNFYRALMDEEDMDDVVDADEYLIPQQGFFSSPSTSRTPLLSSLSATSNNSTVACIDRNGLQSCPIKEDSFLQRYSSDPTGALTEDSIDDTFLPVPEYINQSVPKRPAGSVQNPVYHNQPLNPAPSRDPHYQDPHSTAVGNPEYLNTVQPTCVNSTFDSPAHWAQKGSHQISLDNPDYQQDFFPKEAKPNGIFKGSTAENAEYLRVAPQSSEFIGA
von Hippel-Lindau disease tumor suppressor/Epidermal growth factor receptor (Homo sapiens), sequence (P00533 25-1210 limits assumed): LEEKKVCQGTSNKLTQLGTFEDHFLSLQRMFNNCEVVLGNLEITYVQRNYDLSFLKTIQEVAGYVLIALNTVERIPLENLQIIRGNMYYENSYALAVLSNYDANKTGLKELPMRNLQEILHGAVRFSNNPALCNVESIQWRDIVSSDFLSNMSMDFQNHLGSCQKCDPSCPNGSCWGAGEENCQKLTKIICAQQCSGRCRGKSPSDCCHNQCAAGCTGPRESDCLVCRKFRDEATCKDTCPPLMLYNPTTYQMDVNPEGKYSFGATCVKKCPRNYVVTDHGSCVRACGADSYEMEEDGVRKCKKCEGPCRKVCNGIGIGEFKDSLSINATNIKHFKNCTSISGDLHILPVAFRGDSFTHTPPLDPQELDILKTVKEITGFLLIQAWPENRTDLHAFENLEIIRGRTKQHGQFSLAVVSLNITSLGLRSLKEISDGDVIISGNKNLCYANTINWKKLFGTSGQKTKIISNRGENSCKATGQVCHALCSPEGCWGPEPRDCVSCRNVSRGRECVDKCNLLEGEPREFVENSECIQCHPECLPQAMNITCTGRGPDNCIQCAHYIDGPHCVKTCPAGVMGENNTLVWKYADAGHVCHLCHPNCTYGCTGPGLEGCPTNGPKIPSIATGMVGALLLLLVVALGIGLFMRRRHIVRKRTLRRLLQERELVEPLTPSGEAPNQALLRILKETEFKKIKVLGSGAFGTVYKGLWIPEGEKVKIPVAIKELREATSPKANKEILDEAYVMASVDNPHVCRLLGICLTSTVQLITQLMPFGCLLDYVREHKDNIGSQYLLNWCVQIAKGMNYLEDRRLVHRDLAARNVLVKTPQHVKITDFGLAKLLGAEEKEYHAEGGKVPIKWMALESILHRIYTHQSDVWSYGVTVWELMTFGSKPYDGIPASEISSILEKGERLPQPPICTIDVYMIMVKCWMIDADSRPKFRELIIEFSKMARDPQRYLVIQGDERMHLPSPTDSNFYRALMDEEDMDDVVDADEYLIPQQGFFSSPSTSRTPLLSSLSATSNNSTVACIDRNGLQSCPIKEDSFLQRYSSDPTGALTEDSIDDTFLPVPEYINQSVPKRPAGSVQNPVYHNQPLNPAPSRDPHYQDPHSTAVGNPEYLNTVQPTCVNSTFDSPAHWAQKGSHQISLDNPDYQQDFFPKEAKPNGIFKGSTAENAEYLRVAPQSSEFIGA
von Hippel-Lindau disease tumor suppressor/Epidermal growth factor receptor (Homo sapiens), sequence (P40337 whole entry partner): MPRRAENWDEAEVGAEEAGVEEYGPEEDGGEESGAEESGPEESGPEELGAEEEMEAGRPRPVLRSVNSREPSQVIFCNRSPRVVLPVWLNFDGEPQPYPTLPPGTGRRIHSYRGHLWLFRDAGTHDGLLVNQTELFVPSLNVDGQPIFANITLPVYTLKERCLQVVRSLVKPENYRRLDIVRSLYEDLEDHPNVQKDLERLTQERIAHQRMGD

What is called IC50 is the concentration that inhibits the measured activity by half. Take `Cc1ncsc1-c1ccc(CNC(=O)[C@@H]2C[C@@H](O)CN2C(=O)[C@@H](NC(=O)COCCOCCn2cc(CCCCCOc3cc4ncnc(Nc5ccc(F)c(Cl)c5)c4cc3NC(=O)/C=C/CN3CCCCC3)nn2)C(C)(C)C)cc1`: in experiment [1], the result was Active. The IC50 was found to be 18.7 nM in the experiment with HCC827 [2], 4 nM with HCC827 [3] and 6 nM with HCC827 [4]. Further, the Activity result in experiment [5] is “Dose-Dependent Effect”.

Turning to `Cc1ncsc1-c1ccc(CNC(=O)[C@@H]2C[C@@H](O)CN2C(=O)[C@@H](NC(=O)COCCOCCOCCn2cc(COc3cc4ncnc(Nc5ccc(F)c(Cl)c5)c4cc3NC(=O)/C=C/CN3CCCCC3)nn2)C(C)(C)C)cc1`, the result (in the experiment on HCC827 [6]; in experiment [7]; in experiment [5]) was inactive.
